From the supplement of paper PMC10307832

Key:
Experiment in all cases: relative viability (nuclei count vs DMSO), 5 days (fraction); higher = more cells survive
[1] = compound: C1=CC=C2C(=C1)C=CC(=C2SSC3=C(C=CC4=CC=CC=C43)O)O [IPA-3] + NC(=O)Nc1cc(-c2cccc(F)c2)sc1C(=O)N[C@H]1CCCNC1 [AZD7762] (partner 0.2 µM)
How it was run: (§1)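 Dosing by pin tool came one day after lung cancer cell lines were seeded in 1536-well plates, using either one drug or a fixed anchor-drug dose plus five library-drug doses (not always all listed) in √10 steps. After 5 days, nuclei were counted on 4× images. Relative viability is treated-well nuclei count divided by vehicle-well nuclei count, and values are medians of duplicate plates.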

[2] = compound: Cn1c(Nc2ccc(C(F)(F)F)cc2)nc2cc(Oc3ccnc(-c4ncc(C(F)(F)F)[nH]4)c3)ccc21 [RAF265] + CC(=O)Nc1cccc(-n2c(=O)n(C3CC3)c(=O)c3c(Nc4ccc(I)cc4F)n(C)c(=O)c(C)c32)c1 [Trametinib] (partner 0.02 µM)
How it was run: as §1

[3] = compound: C1=CC=C2C(=C1)C=CC(=C2SSC3=C(C=CC4=CC=CC=C43)O)O [IPA-3] + Nc1ncn([C@H]2C[C@H](O)[C@@H](CO)O2)c(=O)n1 [Decitabine] (partner 2 µM)
How it was run: as §1

[4] = compound: C1=CC=C2C(=C1)C=CC(=C2SSC3=C(C=CC4=CC=CC=C43)O)O [IPA-3] + Nc1nc2[nH]cc(CCc3ccc(C(=O)N[C@@H](CCC(=O)O)C(=O)O)cc3)c2c(=O)[nH]1 [Pemetrexed] (partner 0.2 µM)
How it was run: as §1

Cell Line	relative viability ([1]; first compound 0.2 µM)	relative viability ([1]; first compound 0.6325 µM)	relative viability ([1]; first compound 2 µM)	relative viability ([1]; first compound 6.325 µM)	relative viability ([1]; first compound 20 µM)	relative viability ([2]; first compound 0.01 µM)	relative viability ([2]; first compound 0.03162 µM)	relative viability ([2]; first compound 0.1 µM)	relative viability ([2]; first compound 0.3162 µM)	relative viability ([2]; first compound 1 µM)	relative viability ([3]; first compound 0.2 µM)	relative viability ([3]; first compound 0.6325 µM)	relative viability ([3]; first compound 2 µM)	relative viability ([3]; first compound 6.325 µM)	relative viability ([3]; first compound 20 µM)	relative viability ([4]; first compound 0.2 µM)	relative viability ([4]; first compound 0.6325 µM)	relative viability ([4]; first compound 2 µM)	relative viability ([4]; first compound 6.325 µM)	relative viability ([4]; first compound 20 µM)
NCI-H1666	0.866	0.815	0.788	0.962	0.905	0.89	0.852	0.784	0.839	0.656	0.661	0.759	0.737	0.868	0.706	0.842	0.853	0.874	0.796	0.83
NCI-H1734	0.637	0.508	0.624	0.571	0.496	0.722	0.526	0.564	0.535	0.276	0.59	0.457	0.469	0.44	0.436	0.412	0.46	0.436	0.365	0.383
NCI-H1755	0.55	0.448	0.434	0.486	0.476	0.753	0.727	0.688	0.647	0.467	0.752	0.69	0.651	0.699	0.716	0.621	0.44	0.495	0.399	0.398
NCI-H1792	0.97	0.519	–	0.604	0.572	0.485	0.408	0.361	0.218	0.0679	0.72	0.46	–	0.492	0.568	1.33	0.486	–	0.587	0.737
NCI-H1793	0.56	0.526	0.424	0.641	0.527	0.403	0.44	0.303	0.232	0.237	0.545	0.495	0.566	0.442	0.529	1.33	0.736	0.927	0.923	0.632
NCI-H1915	0.77	0.713	0.693	0.68	0.694	0.327	0.275	0.23	0.151	0.1	0.277	0.279	0.248	0.262	0.245	0.559	0.463	0.497	0.461	0.633
NCI-H1944	0.766	0.492	0.536	0.718	0.541	0.454	0.453	0.386	0.324	0.246	0.468	0.41	0.456	0.481	0.412	0.687	0.549	0.551	0.721	0.577
NCI-H1975	0.825	0.731	0.778	0.868	0.775	0.422	0.286	0.22	0.173	0.191	0.472	0.368	0.357	0.398	0.356	0.318	0.288	0.305	0.347	0.274
NCI-H1993	0.971	0.922	0.85	0.738	0.726	0.585	0.619	0.542	0.384	0.435	0.611	0.576	0.643	0.547	0.615	0.652	0.602	0.57	0.531	0.516
NCI-H2085	1.11	0.956	1.02	0.893	1.21	0.45	0.524	0.514	0.511	0.545	0.58	0.568	0.56	0.502	0.459	0.89	0.828	0.864	0.821	0.993
NCI-H2087	1.52	1.29	1.43	1.07	1.35	0.195	0.148	0.154	0.161	0.129	0.344	0.321	0.267	0.261	0.255	0.698	0.642	0.645	0.678	0.608
NCI-H2126	1.05	0.974	1	0.958	1.05	0.635	0.526	0.539	0.506	0.342	0.556	0.624	0.595	0.587	0.622	0.726	0.706	0.721	0.678	0.712
NCI-H2170	1.1	0.826	0.78	0.795	0.919	0.928	0.86	0.792	0.666	0.56	0.462	0.421	0.424	0.445	0.439	0.254	0.28	0.243	0.28	0.273
NCI-H2342	0.429	0.563	0.502	0.681	0.542	0.75	0.715	0.786	0.698	0.682	0.772	0.75	0.737	0.798	0.839	0.868	0.761	0.841	0.823	0.924
NCI-H2347	0.789	0.604	0.777	0.738	0.904	0.266	0.292	0.283	0.22	0.227	0.629	0.611	0.657	0.622	0.603	0.418	0.416	0.76	0.452	0.433
NCI-H2405	0.89	0.806	0.847	0.771	0.73	0.605	0.639	0.539	0.474	0.383	0.797	0.737	0.723	0.721	0.746	1.19	1.07	1.11	0.998	0.962
